Where a name gives a salt, the structure may show the parent alone. Read-outs that look alike come from different tables or passages of the source.
Assays:
[1] = target: T1, monoamine oxidase (type A enzyme, tryptamine substrate) (Rattus norvegicus, UniProt P21396); experiment: in-vitro monoamine oxidase inhibition, [14C]tryptamine as substrate; type: biochemical; settings: Table I; monoamine oxidase extract of Wistar rat tissue, pH 7.4, 37° C., 20 minutes; read-out: I.C.50-value using as substrate [14C]tryptamine
T1 sequence (P21396 1-526): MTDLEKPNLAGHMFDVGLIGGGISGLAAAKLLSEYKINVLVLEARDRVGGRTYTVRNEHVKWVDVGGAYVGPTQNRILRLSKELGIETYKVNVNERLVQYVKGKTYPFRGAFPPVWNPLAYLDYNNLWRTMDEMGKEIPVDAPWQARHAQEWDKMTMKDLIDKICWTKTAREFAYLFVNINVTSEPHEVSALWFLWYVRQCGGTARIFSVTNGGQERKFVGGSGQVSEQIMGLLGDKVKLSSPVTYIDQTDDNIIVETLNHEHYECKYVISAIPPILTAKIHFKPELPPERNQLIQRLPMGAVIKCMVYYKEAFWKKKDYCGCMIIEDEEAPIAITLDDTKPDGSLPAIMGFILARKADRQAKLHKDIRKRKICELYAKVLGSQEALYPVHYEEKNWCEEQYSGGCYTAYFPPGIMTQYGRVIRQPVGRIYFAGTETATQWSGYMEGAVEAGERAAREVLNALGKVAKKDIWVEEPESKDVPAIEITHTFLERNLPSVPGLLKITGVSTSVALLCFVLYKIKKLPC

[2] = target: T2, monoamine oxidase (type B enzyme, β-phenylethylamine substrate) (Rattus norvegicus, UniProt P19643); experiment: in-vitro monoamine oxidase inhibition, [14C]phenylethylamine hydrochloride as substrate; type: biochemical; settings: monoamine oxidase extract of Wistar rat tissue, pH 7.4, 37° C., 20 minutes
T2 sequence (P19643 1-520): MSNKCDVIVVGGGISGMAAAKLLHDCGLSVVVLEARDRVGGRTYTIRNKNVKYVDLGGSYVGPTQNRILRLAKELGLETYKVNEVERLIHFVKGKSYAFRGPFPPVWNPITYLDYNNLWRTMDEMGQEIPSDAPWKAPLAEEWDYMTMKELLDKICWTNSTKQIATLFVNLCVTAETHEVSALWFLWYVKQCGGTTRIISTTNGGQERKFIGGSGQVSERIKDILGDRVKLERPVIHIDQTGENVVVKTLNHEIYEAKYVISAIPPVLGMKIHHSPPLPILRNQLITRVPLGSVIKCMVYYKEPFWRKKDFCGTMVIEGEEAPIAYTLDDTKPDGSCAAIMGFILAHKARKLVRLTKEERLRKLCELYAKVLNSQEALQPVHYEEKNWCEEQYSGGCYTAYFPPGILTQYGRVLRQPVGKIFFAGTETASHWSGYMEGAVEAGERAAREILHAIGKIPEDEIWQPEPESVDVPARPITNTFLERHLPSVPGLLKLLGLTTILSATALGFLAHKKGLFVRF

[3] = Table I, read-out: I.C.50-value using as substrate [14C]phenylethylamine . HCl

SMILES | IC50 [1] | IC50 [2, 3] | IC50 ([2]; Table 2, read-out: I.C.50-value using as substrate [14C]phenylethylamine hydrochloride)
O=C(c1ccccc1)c1ccc2c(c1)N1CCN=C1S2 [6-COC6 H5, (2,3-dihydroimidazo[2,1-b]benzothiazol-6-yl)phenylmethanone monohydrochloride] | 0.22 µM | 3 µM | –
c1ccc(Oc2ccc3c(c2)SC2=NCCN23)cc1 [7-OC6 H5] | 0.45 µM | 0.095 µM | –
CCCCCCN(C=C(C(=O)OCC)C(=O)OCC)c1ccc2c(c1)SC1=[N+](CCCCCC)CCN12 | – | – | 1.8 µM
CCNc1ccc2c(c1)N1CCN=C1S2 [6-NHC2 H5, N-ethyl-2,3-dihydroimidazo[2,1-b]benzothiazol-6-amine] | 0.018 µM | 40 µM | –
c1ccc2c3c(ccc2c1)SC1=NCCN13 [5,6-(CHCHCHCH)] | 0.006 µM | 4 µM | –
c1c2c(cc3c1SC1=NCCN13)CCC2 [6,7-(CH2)3] | 0.055 µM | 12 µM | –
CCCc1ccc2c(c1)SC1=NC(c3ccccc3)CN12 (stereo not shown) [2-C6 H5,7-C3 H7] | 2.5 µM | 6 µM | –
CCC(CC)Nc1ccc2c(c1)N1CCN=C1S2 [6-NHCH(C2 H5)2] | 0.006 µM | 1.8 µM | –
CC(CO)Nc1ccc2c(c1)N1CCN=C1S2 (stereo not shown) | 0.13 µM | – | –
COc1cc(CNc2ccc3c(c2)SC2=NCCN23)cc(OC)c1OC [7-NHCH2 [3,4,5-(OCH3)3C6 H2]] | 20 µM | 0.07 µM | –
CCOC(=O)C(=CNc1ccc2c(c1)SC1=NCCN12)C(=O)OCC [7-NHCHC(COOEt)2, diethyl 2-[(2,3-dihydroimidazo[2,1-b]benzothiazol-7-yl-amino)methylene]propanedioate] | 3.4 µM | 0.03 µM | –
CCNc1ccc2c(c1)SC1=NCCN12 [7-NHC2 H5] | 0.1 µM | 45 µM | –
CC(C)Nc1ccc2c(c1)N1CCN=C1S2 [6-NHi . C3 H7, 2,3-dihydro-N-(1-methylethyl)imidazo[2,1-b]benzothiazol-6-amine] | 0.018 µM | 34 µM | –
C#CCNc1ccc2c(c1)SC1=NCCN12 | 0.8 µM | 55 µM | –
Clc1ccc(CNc2ccc3c(c2)N2CCN=C2S3)cc1 [6-NHCH2(4-ClC6 H4)] | 0.026 µM | 0.07 µM | –
CCc1ccc2c(c1)N1CCN=C1S2 [6-C2 H5] | 0.14 µM | 10 µM | –
CCCCCCc1ccc2c(c1)SC1=NCCN12 [7-C6 H13] | 0.02 µM | 0.04 µM | –
CCCN(C=C(C(=O)OCC)C(=O)OCC)c1ccc2c(c1)SC1=NCCN12 [7-N(C3 H7)CHC(COOEt)2] | 0.22 µM | 2.2 µM | –

The next lines start with the values.

IC50 [1] | IC50 [2, 3] | IC50 ([2]; Table 2, read-out: I.C.50-value using as substrate [14C]phenylethylamine hydrochloride) | SMILES
0.22 µM | 4 µM | – | Cc1cccc2c1N1CCN=C1S2 [Example 5-CH3]
0.012 µM | 0.065 µM | – | c1cc2c(cc1C1CCCCC1)SC1=NCCN12 [7-c . C6 H 11]
0.002 µM | 40 µM | – | CCNc1cccc2c1SC1=NCCN12 [8-NHC2 H5]
0.28 µM | 14 µM | – | COc1ccc2c(c1)SC1=NCCN12 [Example 7-OCH3]
2 µM | – | – | Oc1ccc2c(c1)SC1=NCCN12 [Example 7-OH, 2,3-dihydroimidazo[2,1-b]benzothiazol-7-ol monohydrobromide]
1.6 µM | 12 µM | – | NC(=O)Nc1ccc2c(c1)N1CCN=C1S2 [Example 6-NHCONH2, N-(2,3-dihydroimidazo[2,1-b]benzothiazol-6-yl)urea]
1.8 µM | 85 µM | – | CC(=O)Nc1ccc2c(c1)N1CCN=C1S2 [Example 6-NHCOCH3, N-(2,3-dihydroimidazo[2,1-b]benzothiazol-6-yl)acetamide]
0.12 µM | 0.6 µM | – | Clc1cccc2c1N1CCN=C1S2 [Example 5-Cl]
